Test results from patent KR20110062313A, “시티딘을 포함하는 약제학적 조성물” (주식회사 머젠스, priority 2009, dated 2011).
Where “and” joins values, the source holds several entries; their conditions need not be identical. Identical values can stand only once.

Tests used:
[1] = system: dry eye model in CBA/J mice (CBA/J 마우스의 건성안 모델); type: in vivo, mouse
[2] = system: HCE-T (human cornea epithelial cell) (HCE-T(사람 각막 상피 세포)); assay: Hyaluronic acid amount in HCE-T medium by hyaluronan-ELISA; type: cell-based; parameters: dose or concentration left out as unconfirmed; settings: 1 ml medium containing cytidine, 72 h, 37℃

Nc1ccn([C@@H]2O[C@H](CO)[C@@H](O)[C@H]2O)c(=O)n1 [시티딘]
tear volume (mean) ([1]; N 8): 7.39 and 4.54 and 6.18 and 7.03 | tear volume compared with control group ([1]; mouse, in vivo): 유의하게 눈물의 양이 증가 | tear volume compared with normal group ([1]; mouse, in vivo): 정상군에 해당하는 눈물량의 분비 | amount of hyaluronic acid (mean) [2]: 88.9 | amount of hyaluronic acid compared with control group ([2]; versus control): 히아루론산의 양이 대조군에 비하여 증가하지 않음
